Test [1] has as its target T1, fatty acyl CoA:cholesterol acyl transferase (ACAT) (Rattus norvegicus, UniProt Q7TQM4).
T1 construct: the enzyme was derived from microsomes isolated from rat intestinal mucosal cells; from tissue; host or cells: rat intestinal mucosal cells, microsomes
T1 sequence (Q7TQM4 1-524): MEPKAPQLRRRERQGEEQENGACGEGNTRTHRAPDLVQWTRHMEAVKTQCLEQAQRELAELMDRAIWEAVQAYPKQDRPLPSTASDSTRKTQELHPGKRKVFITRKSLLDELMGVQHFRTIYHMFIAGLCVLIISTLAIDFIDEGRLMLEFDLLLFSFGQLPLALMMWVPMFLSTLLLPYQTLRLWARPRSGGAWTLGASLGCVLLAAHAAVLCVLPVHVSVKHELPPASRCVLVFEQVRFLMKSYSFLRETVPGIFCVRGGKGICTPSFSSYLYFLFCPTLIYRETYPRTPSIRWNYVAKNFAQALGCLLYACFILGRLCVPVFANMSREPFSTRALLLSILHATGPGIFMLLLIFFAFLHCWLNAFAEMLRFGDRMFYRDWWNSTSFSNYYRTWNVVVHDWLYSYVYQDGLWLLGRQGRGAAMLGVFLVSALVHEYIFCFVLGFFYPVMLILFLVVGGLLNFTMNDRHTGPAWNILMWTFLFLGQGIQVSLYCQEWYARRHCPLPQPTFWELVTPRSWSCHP
As to the kind of experiment: Inhibition of ACAT from microsomes isolated from rat intestinal mucosal cells. In kind it is biochemical. The method, then:
The compounds were tested for their ability to inhibit ACAT according to the following procedure: rat adrenals were homogenized in 0.2M monobasic potassium phosphate buffer, pH 7.4, and centrifuged at 1,000 times gravity for 15 minutes at 5° C. The supernatant, containing the microsomal fraction, served as the source of the cholesterol-esterifying enzyme, fatty acyl CoA:cholesterol acyl transferase (ACAT). A mixture comprising 50 parts of adrenal supernatant, 10 parts of bovine serum albumin (50 mg/ml), 3 parts of test compound (final concentration 5.2 μg/ml), and 500 parts of buffer was preincubated at 37° C. for 10 minutes. After treatment with 20 parts of oleoyl CoA (^14 C-0.4 μCi), the mixture was incubated at 37° C. for 10 minutes. A control mixture, omitting the test compound, was prepared and treated in the same manner. The lipids from the incubation mixture was extracted into an organic solvent and separated by thin-layer chromatography. The cholesteryl ester fraction was counted in a scintillation counter. This procedure is a modification of that described by Hashimoto, et al., Life Scie., 12 (Part II), 1-12 (1973).
The compounds of this invention were tested in vitro at several concentrations for their ability to inhibit the enzyme fatty acyl CoA:cholesterol acyl transferase (ACAT) using the hereinabove described procedure except that the enzyme was derived from microsomes isolated from rat intestinal mucosal cells rather than rat adrenal cells. The results of this test on representative compounds of this invention are given in Table III in terms of IC50 (μM), that concentration which produced 50% inhibition of the ACAT enzyme.

Test [2] concerns the target T2, fatty acyl CoA: cholesterol acyl transferase (ACAT) (Rattus norvegicus, UniProt O70536).
T2 construct: The supernatant, containing the microsomal fraction, served as the source of the cholesterol-esterifying enzyme; from tissue; host or cells: rat adrenals, supernatant of 1,000 x g centrifugation containing the microsomal fraction
T2 sequence (O70536 1-545): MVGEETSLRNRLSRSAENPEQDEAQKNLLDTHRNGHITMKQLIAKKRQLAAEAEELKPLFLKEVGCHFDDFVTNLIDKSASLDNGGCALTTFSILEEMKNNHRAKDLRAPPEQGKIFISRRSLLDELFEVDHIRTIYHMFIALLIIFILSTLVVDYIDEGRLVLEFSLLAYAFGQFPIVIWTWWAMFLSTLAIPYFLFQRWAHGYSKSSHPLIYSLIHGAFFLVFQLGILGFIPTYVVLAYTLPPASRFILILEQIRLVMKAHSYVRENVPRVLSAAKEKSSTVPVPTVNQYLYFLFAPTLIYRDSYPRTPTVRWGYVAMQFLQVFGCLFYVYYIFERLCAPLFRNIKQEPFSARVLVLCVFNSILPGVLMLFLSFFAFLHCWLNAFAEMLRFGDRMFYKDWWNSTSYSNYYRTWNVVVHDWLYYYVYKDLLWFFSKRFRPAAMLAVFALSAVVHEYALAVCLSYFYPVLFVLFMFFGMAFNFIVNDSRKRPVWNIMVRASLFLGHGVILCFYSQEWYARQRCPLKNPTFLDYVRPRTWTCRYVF
As to the kind of experiment: Inhibition of fatty acyl CoA:cholesterol acyl transferase (ACAT), rat adrenal enzyme. The format is biochemical. Summed up:
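Read-out was scintillation counting of [14C]cholesteryl ester, isolated by TLC, after 10 min at 37° C with [14C]oleoyl CoA. Beforehand, compound (final 5.2 μg/ml in single-concentration tests) was preincubated 10 min at 37° C with BSA and rat adrenal microsomal supernatant in pH 7.4 phosphate. Results given as percent inhibition versus control or IC50 over several concentrations.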

The subject of test [3] is cholesterol absorption. Kind of test: Inhibition of cholesterol absorption in rats fed 1% cholesterol:0.5% cholic acid diet. To be noted: po, 336 h, rat, 2 weeks; for response vs control in vivo at 0.03 %: dose .03% of the diet; for response vs control in vivo at 0.01 %: dose .01% of the diet. In kind it is in vivo, male Sprague-Dawley rats. Summed up: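 Compound was mixed into the diet (0.001-0.03%) of male Sprague-Dawley rats, 150-170 g, on a 1% cholesterol/0.5% cholic acid regimen for 2 weeks. At sacrifice, serum cholesterol (enzymatic) and liver neutral-sterol cholesterol were measured; values given as percent of compound-free control rats.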

[4] abbreviates: read-out: LS (liver sterol), percentage of control values.
Where [5] appears, read: read-out: SS (serum sterol), percentage of control values.
Setting [6] is: rat adrenal ACAT, final concentration 5.2 μg/ml, read-out: % Inhibition.

Where two headings read alike, the source gives them in different places.

Usually IC50 stands for the concentration that gives 50% inhibition. Lower therefore signals greater potency. As usually defined, the inhibition is the percentage by which the read-out fell short of the control.

In the case of `CCCCCCCN(Cc1ccc(CCCCSC(C)C)cc1)C(=O)Nc1ccc(F)cc1F` [1-(n-Heptyl)-1-[4-(4-isopropylthiobutyl)benzyl]-3-(2,4-difluorophenyl)urea], in test [1], the IC50 came out at 3.27 µM.
`CCCCCCCN(Cc1ccc(OCCCC)cc1)C(=O)Nc1c(Cl)cc(Cl)cc1Cl` [1-(n-Heptyl)-1-(4-n-butoxybenzyl)-3-(2,4,6-trichlorophenyl)urea] came in with an inhibition at 5.2 µg/mL in test [2] of 90%. In addition, the results for the response vs control in vivo at 0.03 % in test [3] (setting [4]) and in test [3] (setting [5]) were 11% and 35%, respectively.
As to `CCCCCCCN(CCc1ccccc1)C(=O)Nc1ccc(Cl)cc1Cl` [1-(n-Heptyl)-1-(2-phenylethyl)-3-(2,4-dichlorophenyl)urea], the inhibition at 5.2 µg/mL in test [2] (setting [6]) came to 91.8%. Moreover, the response vs control in vivo at 0.03 % in test [3] (setting [4]) was 88%; in test [3] (setting [5]), 81%.
As for `CCCCOc1ccc(CN(Cc2ccccc2)C(=O)Nc2ccc(Cl)cc2C(F)(F)F)cc1` [1-Benzyl-1-(4-n-butoxybenzyl)-3-(2-trifluoromethyl-4-chlorophenyl)urea], the inhibition at 5.2 µg/mL in test [2] (setting [6]) worked out at 85%. The results for the response vs control in vivo at 0.03 % in test [3] (setting [4]) and in test [3] (setting [5]) were 31% and 58%, respectively.
The compound `Cc1cc(Cl)ccc1NC(=O)N(CCC(C)(C)C)Cc1ccccc1` [1-(3,3-Dimethylbutyl)-1-benzyl-3-(4-chloro-2-methylphenyl)urea] registered an inhibition at 5.2 µg/mL in test [2] of 90%. The response vs control in vivo at 0.03 % worked out at 51% in test [3] (setting [4]) and 64% in test [3] (setting [5]).
Regarding `CCCCc1ccc(CN(CCCCCCCl)C(=O)Nc2cc(C)c(C)cc2C)cc1` [1-[(4-Butylphenyl)methyl]-1-(6-chlorohexyl)-3-(2,4,5-trimethylphenyl)urea], the inhibition at 5.2 µg/mL in test [2] was determined as 90%. The figures for the response vs control in vivo at 0.03 % in test [3] (setting [4]) and in test [3] (setting [5]) were 15% and 40%, respectively.
As to `CC(C)(C)CCN(Cc1ccc(Cl)cc1)C(=O)Nc1c(Cl)cc(Cl)cc1Cl` [1-(3,3-Dimethylbutyl)-1-(4-chlorobenzyl)-3-(2,4,6-trichlorophenyl)urea], the inhibition at 5.2 µg/mL in test [2] is 90%. Moreover, the response vs control in vivo at 0.03 % in test [3] (setting [4]) is 41%; in test [3] (setting [5]), 73%.
For `Cc1cc(Cl)cc(C)c1NC(=O)N(CCC(C)(C)C)Cc1ccc(Cl)cc1` [1-(3,3-Dimethylbutyl)-1-(4-chlorobenzyl)-3-(4-chloro-2,6-dimethylphenyl)urea] the same measures were 90%, 25% and 46%.
Turning to `CCCCCCCN(Cc1ccc(CCCC)cc1)C(=O)Nc1cc(C)c(C)cc1C` [1-(n-Heptyl)-1-(4-n-butylbenzyl)-3-(2,4,5-trimethylphenyl)urea], the inhibition at 5.2 µg/mL in test [2] (setting [6]) was found to be 95.3%. In addition, the response vs control in vivo at 0.03 % came to 10% in test [3] (setting [4]) and 33% in test [3] (setting [5]).
In the case of `O=C(Nc1c(Cl)cc(Cl)cc1Cl)N(Cc1ccc(Cl)cc1)Cc1cccc2ccccc12` [1-(4-Chlorobenzyl)-1-(1-naphthylmethyl)-3-(2,4,6-trichlorophenyl)urea], the inhibition at 5.2 µg/mL in test [2] (setting [6]) turned out to be 77%. The response vs control in vivo at 0.03 % turned out to be 12% in test [3] (setting [4]) and 38% in test [3] (setting [5]).
On to `CCCCc1ccc(CN(CCC(C)(C)C)C(=O)Nc2ccc(F)cc2F)cc1` [1-(3,3-Dimethylbutyl)-1-[4-(n-butyl)benzyl]-3-(2,4-difluorophenyl)urea], for which 5.2 µg/mL produced 90% inhibition in test [2]. In addition, the response vs control in vivo at 0.03 % is 30% in test [3] (setting [4]) and 39% in test [3] (setting [5]).
`CCCCc1ccc(CN(Cc2ccccc2)C(=O)Nc2cc(C)c(C)cc2C)cc1` [1-Benzyl-1-(4-n-butylbenzyl)-3-(2,4,5-trimethylphenyl)urea]: the inhibition at 5.2 µg/mL in test [2] (setting [6]) was determined as 90.5%. The response vs control in vivo at 0.03 % in test [3] (setting [4]) was determined as 10%; in test [3] (setting [5]), 50%.
As to `CCCCCOc1ccc(CN(Cc2ccc(CCCCC)cc2)C(=O)Nc2c(Cl)cc(Cl)cc2Cl)cc1` [1-(4-n-Pentylbenzyl)-1-(4-n-pentyloxybenzyl)-3-(2,4,6-trichlorophenyl)urea], in test [2] (setting [6]), the inhibition at 5.2 µg/mL amounted to 95.5%. For the same compound, the results for the response vs control in vivo at 0.03 % in test [3] (setting [4]) and in test [3] (setting [5]) were 76% and 100%, respectively.
With `CCCCCCCN(Cc1ccc(OCCCC)cc1)C(=O)Nc1ccc(Cl)cc1C(F)(F)F` [1-(n-Heptyl)-(4-n-butoxybenzyl)-3-(2-trifluoromethyl-4-chlorophenyl)urea], the inhibition at 5.2 µg/mL in test [2] (setting [6]) is 89.4%. Moreover, the figures for the response vs control in vivo at 0.03 % in test [3] (setting [4]) and in test [3] (setting [5]) were 35% and 59%, respectively.
Take `CCCCN(Cc1ccccc1)C(=O)Nc1c(Cl)cc(Cl)cc1Cl` [1-Benzyl-1-( -n-butyl)-3-(2,4,6-trichlorophenyl)urea]: the inhibition at 5.2 µg/mL in test [2] (setting [6]) stood at 87.8%. The figures for the response vs control in vivo at 0.03 % in test [3] (setting [4]) and in test [3] (setting [5]) were 32% and 48%, respectively.
In test [2], `CCCCCCCN(Cc1ccc(CCCC)cc1)C(=O)Nc1c(C)cc(Cl)cc1C` [1-(n-Heptyl)-1-[4-(n-butyl)benzyl]-3-(4-chloro-2,6-dimethylphenyl)urea] came in with an inhibition at 5.2 µg/mL of 90%. The response vs control in vivo at 0.03 % turned out to be 11% in test [3] (setting [4]) and 31% in test [3] (setting [5]).
`CCCCc1ccc(CN(Cc2ccccc2)C(=O)Nc2ccc(Cl)cc2C)cc1` [1-Benzyl-1-(4-n-butylbenzyl)-3-(2-methyl-4-chlorophenyl)urea]: the inhibition at 5.2 µg/mL in test [2] (setting [6]) came out at 94.3%. The values for the response vs control in vivo at 0.03 % in test [3] (setting [4]) and in test [3] (setting [5]) were 21% and 70%, respectively.
`CCCCCCCN(Cc1ccc(CCC(C)C)cc1)C(=O)Nc1c(C)cc(Cl)cc1C` [1-(n-Heptyl)-1-[4-(isopentyl)benzyl]-3-(4-chloro-2,6-dimethylphenyl)urea]: in test [2] (rat adrenal ACAT, several concentrations), the IC50 was 0.13 µM. Also, the response vs control in vivo at 0.01 % in test [3] (setting [4]) was 10%; in test [3] (setting [5]), 17%.
For `CCCCCCCN(Cc1ccc(CCCC)cc1)C(=O)Nc1ccc(Cl)cc1C` [1-(n-Heptyl)-1-(4-n-butylbenzyl)-3-(2-methyl-4-chlorophenyl)urea], the inhibition at 5.2 µg/mL in test [2] (setting [6]) was 92.5%. Moreover, the values for the response vs control in vivo at 0.03 % in test [3] (setting [4]) and in test [3] (setting [5]) were 16% and 35%, respectively.
In the case of `CCCCc1ccc(CN(CCCCCCC#N)C(=O)Nc2cc(C)c(C)cc2C)cc1` [1-[(4-Butylphenyl)methyl]-1-(6-cyanohexyl)-3-(2,4,5-trimethylphenyl)urea], in test [2], the inhibition at 5.2 µg/mL is 90%. Further, the figures for the response vs control in vivo at 0.03 % in test [3] (setting [4]) and in test [3] (setting [5]) were 28% and 48%, respectively.

(Values after US4623662A, “Antiatherosclerotic ureas and thioureas” (American Cyanamid Company, priority 1985, dated 1986).)
